Earlier results as cited in patent US7232830B2, “Method for treatment of neurodegenerative diseases and effects of aging” (priority 1998, dated 2007).
Where a name gives a salt, the structure may show the parent alone.

Key:
[1] = tested on: histamine metabolism in the mouse brain
MAO-B = biological target: T1, MAO-B (Rattus norvegicus, UniProt P19643); settings: in vitro, rat brain
T1 construct: in vitro on monoamine oxidase activity in the rat brain; host or cells: rat brain
T1 sequence (P19643 1-520): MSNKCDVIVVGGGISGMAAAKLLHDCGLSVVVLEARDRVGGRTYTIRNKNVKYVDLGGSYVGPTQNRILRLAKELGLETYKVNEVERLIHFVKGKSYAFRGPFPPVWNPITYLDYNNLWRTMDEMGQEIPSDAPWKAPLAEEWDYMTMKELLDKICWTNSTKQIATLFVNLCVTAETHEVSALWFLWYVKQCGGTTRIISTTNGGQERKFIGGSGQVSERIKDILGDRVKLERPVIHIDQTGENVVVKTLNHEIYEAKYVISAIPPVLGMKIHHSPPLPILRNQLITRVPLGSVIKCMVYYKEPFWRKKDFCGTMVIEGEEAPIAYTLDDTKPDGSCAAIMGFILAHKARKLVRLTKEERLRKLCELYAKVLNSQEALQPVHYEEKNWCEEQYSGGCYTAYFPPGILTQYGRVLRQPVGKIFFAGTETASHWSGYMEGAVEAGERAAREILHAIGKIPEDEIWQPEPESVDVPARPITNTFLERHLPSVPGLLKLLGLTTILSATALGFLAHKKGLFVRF

| effect on a histidine decarboxylase inhibitor [1] | effect on histamine increase induced by a histamine N-methyltransferase inhibitor [1] | SMILES | effect on MAO-B (MAO-B) |
| --- | --- | --- | --- |
| no significant affect | inhibited the histamine increase | COC(=O)[C@H]1[C@H]2C[C@@H]3c4[nH]c5cc(OC)ccc5c4CCN3C[C@H]2C[C@@H](OC(=O)c2cc(OC)c(OC)c(OC)c2)[C@@H]1OC [reserpine] |  |
|  |  | S=C(NC1CCCCC1)N1CCC(c2cnc[nH]2)CC1 [thioperamide maleate] | inhibits MAO-B |
